This passage reports IC50 results from ChEMBL document CHEMBL4622944 (Bioorg Med Chem Lett, 2020).

Common to all, as to format: functional, cell-based
One assay deals with PC-3. As to the kind of experiment: Antiproliferative activity against human PC3 cells assessed as reduction in cell viability by MTT assay. For orientation: Tetrazolium dyes change colour on reduction, which living cells bring about.
For the next assay, the system named is HCT-116. Briefly: Antiproliferative activity against human HCT116 cells assessed as reduction in cell viability by MTT assay.
The next assay has as its system A549. Briefly: Antiproliferative activity against human A549 cells assessed as reduction in cell viability by MTT assay.

`COc1cc(/C=N/Nc2ncc3c(n2)n(C2CCCC2)c(=O)c(=O)n3C)cc(OC)c1OC`: the figures for the 50% inhibitory concentration (IC50) in the assay with PC-3, in the assay on HCT-116 and with A549 were 17.5 µM, 22.9 µM and 18.3 µM, respectively.

With `Cn1c(=O)c(=O)n(C2CCCC2)c2nc(N/N=C/c3ccc(C(F)(F)F)cc3)ncc21`, the IC50 (commonly the concentration that inhibits the measured activity by half) stood at 23.6 µM in the assay on PC-3, 29 µM with HCT-116 and 40.6 µM with A549.

On to `Cn1c(=O)c(=O)n(C2CCCC2)c2nc(N/N=C/c3ccc(Cl)cc3)ncc21`, for which the IC50 was 8.42 µM in the assay on PC-3, 9.81 µM in the assay on HCT-116 and 6.89 µM in the assay on A549.

In the case of `Cn1c(=O)c(=O)n(C2CCCC2)c2nc(N/N=C/c3ccc(O)c(Br)c3)ncc21`, the IC50 came to 11.6 µM in the assay on PC-3, 17.7 µM in the assay on HCT-116 and 12.8 µM with A549.

For `COc1ccc(/C=N/Nc2ncc3c(n2)n(C2CCCC2)c(=O)c(=O)n3C)c(OC)c1`, the IC50 in the assay on PC-3, with HCT-116 and in the assay on A549 was greater than 100 µM each time.

Take `Cn1c(=O)c(=O)n(C2CCCC2)c2nc(N/N=C/c3ccco3)ncc21`: the figures for the IC50 in the assay with PC-3, with HCT-116 and in the assay with A549 were 72.2 µM, 78.7 µM and greater than 100 µM, respectively.

As for `Cn1c(=O)c(=O)n(C2CCCC2)c2nc(N/N=C/c3cccs3)ncc21`, the IC50 is 75.6 µM in the assay on PC-3, 52.6 µM in the assay with HCT-116 and greater than 100 µM in the assay with A549.

As for `Cn1c(=O)c(=O)n(C2CCCC2)c2nc(N/N=C/c3ccc(F)c(Cl)c3)ncc21`, the half-maximal inhibitory concentration (IC50) in the assay with PC-3 was 8.55 µM; in the assay with HCT-116, 9.02 µM; in the assay with A549, 9.41 µM.

For the molecule `Cn1c(=O)c(=O)n(C2CCCC2)c2nc(N/N=C/c3ccc(S(C)(=O)=O)cc3)ncc21`, the IC50 was found to be 26.6 µM in the assay on PC-3, 86.6 µM in the assay on HCT-116 and 84.5 µM in the assay on A549.

As for `Cn1c(=O)c(=O)n(C2CCCC2)c2nc(N/N=C/c3cc([N+](=O)[O-])ccc3Cl)ncc21`, the half-maximal inhibitory concentration (IC50) in the assay with PC-3 was determined as 9.26 µM; in the assay with HCT-116, 5.61 µM; in the assay on A549 it was 8.78 µM.

Regarding `Cn1c(=O)c(=O)n(C2CCCC2)c2nc(N/N=C/c3ccc(O)c(F)c3)ncc21`, the figures for the concentration for half-maximal inhibition (IC50) with PC-3, in the assay with HCT-116 and with A549 were 85.2 µM, 59.3 µM and 97.8 µM, respectively.

Regarding `Cn1c(=O)c(=O)n(C2CCCC2)c2nc(N/N=C/c3ccccc3)ncc21`, the IC50 in the assay with PC-3 is 48.2 µM; in the assay with HCT-116 it was greater than 100 µM; with A549, greater than 100 µM.

On to `Cn1c(=O)c(=O)n(C2CCCC2)c2nc(N/N=C/c3ccc(F)cc3Cl)ncc21`, for which the IC50 in the assay with PC-3 is 15.2 µM; in the assay on HCT-116, 13.8 µM; in the assay on A549, 11 µM.

Turning to `Cn1c(=O)c(=O)n(C2CCCC2)c2nc(N/N=C/c3ccc(OC(F)(F)F)cc3)ncc21`, the IC50 in the assay with PC-3 came to 7.18 µM; in the assay on HCT-116, 6.15 µM; in the assay with A549, 12.9 µM.
